Measurements as given in BindingDB's records for doi:10.1016/j.bmcl.2006.05.062 (AstraZeneca, 2006).

Assay: Inhibition of COX1-mediated platelet aggregation

## COc1ccc2c(c1)c(CC(=O)O)c(C)n2-c1ccnc2cc(Cl)ccc12 [2-(1-(7-chloroquinolin-4-yl)-5-methoxy-2-methyl-1H-indol-3-yl)acetic acid]
  IC50: 40 nM
